Reference: publication PMC3201797 (Bioorganic & medicinal chemistry letters, 2010)
Each block holds one substance with its values, some of them ahead of it.

How the values were obtained:
Format in all cases: biochemical
[1] = molecular target: T1, prostate-specific membrane antigen (PSMA) (Homo sapiens, UniProt Q04609); assay: PSMA enzyme inhibition assay with purified PSMA
[2] = molecular target: T1, prostate-specific membrane antigen (PSMA); assay: PSMA enzyme inhibition assay with purified PSMA; remark: listed apart in the source
[3] = molecular target: T1, prostate-specific membrane antigen (PSMA); assay: PSMA enzyme inhibition assay

T1 sequence (Q04609 whole entry): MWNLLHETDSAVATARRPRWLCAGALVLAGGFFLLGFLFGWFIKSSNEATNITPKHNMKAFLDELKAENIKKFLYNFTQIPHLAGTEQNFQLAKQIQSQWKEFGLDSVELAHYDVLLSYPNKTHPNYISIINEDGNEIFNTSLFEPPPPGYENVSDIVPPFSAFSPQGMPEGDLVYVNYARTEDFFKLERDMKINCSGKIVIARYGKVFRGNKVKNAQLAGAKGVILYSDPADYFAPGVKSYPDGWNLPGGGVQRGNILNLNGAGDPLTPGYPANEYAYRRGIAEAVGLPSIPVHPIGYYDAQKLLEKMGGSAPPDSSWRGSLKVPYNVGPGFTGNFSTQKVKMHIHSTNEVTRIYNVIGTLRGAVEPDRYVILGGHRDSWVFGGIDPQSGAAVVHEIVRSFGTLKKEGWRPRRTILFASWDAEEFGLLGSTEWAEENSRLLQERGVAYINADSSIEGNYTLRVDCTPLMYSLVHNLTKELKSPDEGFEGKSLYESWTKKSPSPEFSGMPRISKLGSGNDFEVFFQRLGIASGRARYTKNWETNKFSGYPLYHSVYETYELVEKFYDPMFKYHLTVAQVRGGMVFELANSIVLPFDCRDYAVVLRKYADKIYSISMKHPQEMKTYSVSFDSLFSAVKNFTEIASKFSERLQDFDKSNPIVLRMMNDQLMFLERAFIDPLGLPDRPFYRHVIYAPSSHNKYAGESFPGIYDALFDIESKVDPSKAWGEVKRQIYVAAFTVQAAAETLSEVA

IC50 [1]: 144 nM
Substance: CTT-54.2

IC50 [2]: 0.55 nM
Substance: Cy5.5-CTT-54.2

IC50 [3]: 6100 nM
Substance: Cy5.5 free acid
